Test results: patent US20240116985A1, “STAPLED PEPTIDES AND METHODS THEREOF” (priority 2020, published 2024)
Where two headings read alike, the source gives them in different places.

How the values were obtained:
[1] = target: T1, full-length beta-Catenin (Uniprot ID P35222) (Homo sapiens, UniProt P35222); experiment: Fluorescence polarization IC50 (beta-catenin / 5FAM-TCF4 10-53 competition); format: binding; conditions: fluorescence polarization
T1 construct: 10 nM full-length beta-Catenin (Uniprot ID P35222)
T1 sequence (P35222 1-781): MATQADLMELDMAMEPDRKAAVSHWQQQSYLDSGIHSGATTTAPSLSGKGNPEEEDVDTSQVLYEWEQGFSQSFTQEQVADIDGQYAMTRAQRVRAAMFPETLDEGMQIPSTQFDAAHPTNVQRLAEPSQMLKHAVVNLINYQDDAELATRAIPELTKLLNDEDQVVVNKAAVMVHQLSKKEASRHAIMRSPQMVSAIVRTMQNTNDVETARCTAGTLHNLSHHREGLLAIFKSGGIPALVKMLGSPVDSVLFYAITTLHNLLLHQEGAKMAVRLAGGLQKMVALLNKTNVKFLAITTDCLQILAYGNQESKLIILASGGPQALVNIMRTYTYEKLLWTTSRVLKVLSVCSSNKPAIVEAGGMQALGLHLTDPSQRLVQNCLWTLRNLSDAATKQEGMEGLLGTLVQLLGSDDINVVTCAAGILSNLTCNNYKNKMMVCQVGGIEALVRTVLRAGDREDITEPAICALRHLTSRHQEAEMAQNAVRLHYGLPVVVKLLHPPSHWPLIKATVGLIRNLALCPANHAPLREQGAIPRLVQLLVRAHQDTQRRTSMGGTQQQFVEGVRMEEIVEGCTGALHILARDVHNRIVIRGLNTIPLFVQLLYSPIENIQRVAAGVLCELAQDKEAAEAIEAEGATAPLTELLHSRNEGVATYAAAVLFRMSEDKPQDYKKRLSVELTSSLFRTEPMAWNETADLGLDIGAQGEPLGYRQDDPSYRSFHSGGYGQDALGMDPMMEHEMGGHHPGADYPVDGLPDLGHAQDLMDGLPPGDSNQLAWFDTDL

[2] = target: T2, beta-catenin/TCF4 engagement (Homo sapiens, UniProt P35222); experiment: Nano-BRET target engagement assay (B-cat-Halo & TCF4-Luc in HEK293 cells); format: cell-based; conditions: read-out: NanoBRET Abs IC50
T2 construct: expressed in transfected cells; host or cells: HEK293
T2 sequence (P35222 1-781): T1 sequence (P35222 1-781)

SMILES | IC50 ([1]; read-out: beta-Catenin FP IC50) [nM] | IC50 ([2]; absolute IC50) [nM] | IC50 [2] [nM] | IC50 ([1]; beta-catenin, read-out: FP EC50) [nM]
CCN(CC[C@@H]1NC(=O)[C@H](CC(=O)O)NC(=O)C2(CCCC=CCCCOC(=O)N3CC[C@@](C(=O)N[C@@H](Cc4ccsc4)C(=O)N[C@@H](Cc4csc5ccccc45)C(=O)N[C@@H](CCC(N)=O)C(N)=O)(C3)NC(=O)[C@H](CC(C)C)NC(=O)[C@H](Cc3ccccc3)NC(=O)[C@H](C)NC(=O)[C@H](C)NC1=O)CCCC=CC[C@]1(CCCN1C(C)=O)C(=O)N[C@@H](CC(=O)O)C(=O)N[C@@H](CC(C)(C)C)C(=O)N2)CC(=O)O (stereo partly drawn) [I-1835, Ac-PL3-Asp-Npg-B5-Asp-[Et]GAbu-Ala-Ala-Phe-Leu-PyrS2-3Thi-BztA-Gln-NH2] | 34 | 31900 |  | 
CC(=O)N1CCC[C@]12CC=CCCCC1(CCCC=CCCCOC(=O)N3CC[C@@](C(=O)N[C@@H](Cc4ccccc4Cl)C(=O)N[C@@H](Cc4cccc5ccccc45)C(=O)N[C@@H](CCC(N)=O)C(N)=O)(C3)NC(=O)[C@H](CC(C)C)NC(=O)[C@H](Cc3ccccc3)NC(=O)[C@H](C)NC(=O)[C@H](C)NC(=O)[C@H](CC(=O)O)NC(=O)[C@H](CC(=O)O)NC1=O)NC(=O)[C@H](CC(C)(C)C)NC(=O)[C@H](CC(=O)O)NC2=O (stereo partly drawn) [I-1236, Ac-PL3-Asp-Npg-B5-Asp-Asp-Ala-Ala-Phe-Leu-PyrS2-2C1F-1NapA-Gln-NH2] | 69 | 20900 |  | 
CC(=O)N1CCC[C@]12CC=CCCCC1(CCCC=CCCCOC(=O)N3CC[C@@](C(=O)N[C@@H](Cc4ccsc4)C(=O)N[C@@H](Cc4csc5ccccc45)C(=O)N[C@@H](CCC(N)=O)C(N)=O)(C3)NC(=O)[C@H](CC(C)C)NC(=O)[C@H](Cc3ccccc3)NC(=O)[C@H](CC(=O)N3CCOCC3)NC(=O)[C@H](C)NC(=O)[C@H](CC(=O)O)NC(=O)[C@H](CC(=O)O)NC1=O)NC(=O)[C@H](CC(C)(C)C)NC(=O)[C@H](CC(=O)O)NC2=O (stereo partly drawn) [I-1507, Ac-PL3-Asp-Npg-B5-Asp-Asp-Ala-MorphAsn-Phe-Leu-PyrS2-3Thi-BztA-Gln-NH2] | 30 | > 20000 |  | 
CC(=O)N1CCC[C@]12CC=CCCCC1(CCCC=CCCCOC(=O)N3CC[C@@](C(=O)N[C@@H](Cc4ccsc4)C(=O)N[C@@H](Cc4csc5ccccc45)C(=O)N[C@@H](CCC(N)=O)C(=O)N[C@@H](CCCCNC(=O)COCCOCCNC(=O)C45CC6(C)CC(C)(CC(C)(C6)C4)C5)C(N)=O)(C3)NC(=O)[C@H](CC(C)C)NC(=O)[C@H](Cc3ccccc3)NC(=O)[C@H](C)NC(=O)[C@H](C)NC(=O)[C@H](CC(=O)O)NC(=O)[C@H](CC(=O)O)NC1=O)NC(=O)[C@H](CC(C)(C)C)NC(=O)[C@H](CC(=O)O)NC2=O (stereo partly drawn) [I-1480, Ac-PL3-Asp-Npg-B5-Asp-Asp-Ala-Ala-Phe-Leu-PyrS2-3Thi-BztA-Gln-Me3AdamantC-PEG2]-Lys-NH2] | 37 | 9300 |  | 
CCCC[C@@H]1NC(=O)[C@H](Cc2ccccc2)NC(=O)[C@H](C)NC(=O)C(C)(C)NC(=O)[C@H](Cc2cccc(C(=O)O)c2)NC(=O)[C@H](CC(=O)O)NC(=O)C2(CCCC=CCCCOC(=O)N3CC[C@@](C(=O)N[C@@H](Cc4ccsc4)C(=O)N[C@@H](Cc4csc5ccccc45)C(=O)N[C@@H](CCC(=O)N4CCC(C(F)(F)F)CC4)C(N)=O)(C3)NC1=O)CCCC=CC[C@]1(CCCN1C(C)=O)C(=O)N[C@@H](CC(=O)O)C(=O)N[C@@H](CC(C)(C)C)C(=O)N2 (stereo partly drawn) [I-2557, Ac-PL3-Asp-Npg-B5-Asp-3COOHF-Aib-Ala-Phe-nLeu-PyrS2-3Thi-BztA-4F3CPip]GlnR-NH2] | 29 | 19600 |  | 
CC(=O)N1CCC[C@]12CC=CCCCC1(CCCC=CCCCOC(=O)N3CC[C@@](C(=O)N[C@@H](Cc4ccsc4)C(=O)N[C@@H](Cc4csc5ccccc45)C(=O)N[C@@H](CC(C)C)C(N)=O)(C3)NC(=O)[C@H](CC(C)C)NC(=O)[C@H](Cc3ccccc3)NC(=O)[C@H](C)NC(=O)[C@H](C)NC(=O)[C@H](CN(CC(=O)O)CC(F)(F)F)NC(=O)[C@H](CC(=O)O)NC1=O)NC(=O)[C@H](CC(C)(C)C)NC(=O)[C@H](CC(=O)O)NC2=O (stereo partly drawn) [I-1748, Ac-PL3-Asp-Npg-B5-Asp-TfeGA-Ala-Ala-Phe-Leu-PyrS2-3Thi-BztA-Leu-NH2] | 141 | 20200 |  | 
CC(=O)N1CCC[C@]12CC=CCCCC1(CCCC=CCCCOC(=O)N3CC[C@@](C(=O)N[C@@H](Cc4ccccc4C(F)(F)F)C(=O)N[C@H](C(=O)N[C@@H](CCC(N)=O)C(N)=O)[C@@H](C)c4csc5ccccc45)(C3)NC(=O)[C@H](CC(C)C)NC(=O)[C@H](Cc3ccccc3)NC(=O)[C@H](C)NC(=O)[C@H](C)NC(=O)[C@H](Cc3cccc(C(=O)O)c3)NC(=O)[C@H](CC(=O)O)NC1=O)NC(=O)[C@H](CC(C)(C)C)NC(=O)[C@H](CC(=O)O)NC2=O (stereo partly drawn) [I-2456, Ac-PL3-Asp-Npg-B5-Asp-3COOHF-Ala-Ala-Phe-Leu-PyrS2-2F3MeF-SbMeBztA-Gln-NH2] | 49 | 8100 |  | 
CC(=O)N1CCC[C@]12CC=CCCCC1(CCCC=CCCCOC(=O)N3CC[C@@](C(=O)N[C@@H](Cc4ccsc4)C(=O)N[C@@H](Cc4csc5ccccc45)C(=O)N[C@@H](CO)C(N)=O)(C3)NC(=O)[C@H](CC(C)C)NC(=O)[C@H](Cc3ccccc3)NC(=O)[C@H](C)NC(=O)[C@H](C)NC(=O)[C@H](Cc3ccc(F)c(C(=O)O)c3)NC(=O)[C@H](CC(=O)O)NC1=O)NC(=O)[C@H](CC(C)(C)C)NC(=O)[C@H](CC(=O)O)NC2=O (stereo partly drawn) [I-2202, Ac-PL3-Asp-Npg-B5-Asp-4F3COOHF-Ala-Ala-Phe-Leu-PyrS2-3Thi-BztA-Ser-NH2] | 11 |  | 5000 | 
CC(=O)N1CCC[C@]12CC=CCCCC1(CCCC=CCCCOC(=O)N3CC[C@@](C(=O)N[C@@H](Cc4ccsc4)C(=O)N[C@@H](Cc4csc5ccccc45)C(=O)N[C@@H](CCC(N)=O)C(N)=O)(C3)NC(=O)[C@H](CC(C)(C)C)NC(=O)[C@H](Cc3ccccc3)NC(=O)[C@H](C)NC(=O)[C@H](C)NC(=O)[C@H](CN(CC(=O)O)CC(F)(F)F)NC(=O)[C@H](CC(=O)O)NC1=O)NC(=O)[C@H](CC(C)(C)C)NC(=O)[C@H](CC(=O)O)NC2=O (stereo partly drawn) [I-1773, Ac-PL3-Asp-Npg-B5-Asp-TfeGA-Ala-Ala-Phe-Npg-PyrS2-3Thi-BztA-Gln-NH2] | 32 | 8600 |  | 
CC(=O)N1CCC[C@]12CC=CCCCC1(CCCC=CCCCOC(=O)N3CC[C@@](C(=O)N[C@@H](Cc4ccccc4C(F)(F)F)C(=O)N[C@H](C(=O)N[C@@H](CCC(N)=O)C(N)=O)[C@@H](C)c4ccc5ccccc5c4)(C3)NC(=O)[C@H](CC(C)C)NC(=O)[C@H](Cc3ccccc3)NC(=O)[C@H](C)NC(=O)[C@H](C)NC(=O)[C@H](Cc3cccc(C(=O)O)c3)NC(=O)[C@H](CC(=O)O)NC1=O)NC(=O)[C@H](CC(C)(C)C)NC(=O)[C@H](CC(=O)O)NC2=O (stereo partly drawn) [I-2464, Ac-PL3-Asp-Npg-B5-Asp-3COOHF-Ala-Ala-Phe-Leu-PyrS2-2F3MeF-SbMe2NapA-Gln-NH2] | 79 | 16500 |  | 
CCCC[C@@H]1NC(=O)[C@H](CC(=O)O)NC(=O)[C@]2(CC=CCCCC3(CCCC=CCCCOC(=O)N4CC[C@@](C(=O)N[C@@H](Cc5ccsc5)C(=O)N[C@@H](Cc5csc6ccccc56)C(=O)N[C@@H](CC(C)C)C(N)=O)(C4)NC(=O)[C@H](CC(C)C)NC(=O)[C@H](Cc4ccccc4)NC(=O)[C@H](C)NC(=O)[C@H](C)NC(=O)[C@H](CC(=O)O)NC(=O)[C@H](CC(=O)O)NC3=O)NC1=O)CCCN2C(C)=O (stereo partly drawn) [I-1412, Ac-PL3-Asp-nLeu-B5-Asp-Asp-Ala-Ala-Phe-Leu-PyrS2-3Thi-BztA-Leu-NH2] | 79 | > 20000 |  | 79
CC(=O)N1CCC[C@]12CC=CCCCC1(CCCC=CCCCOC(=O)N3CC[C@@](C(=O)N[C@@H](Cc4ccccc4C(F)(F)F)C(=O)N[C@H](C(=O)N[C@@H](CCC(N)=O)C(N)=O)[C@H](C)c4csc5ccccc45)(C3)NC(=O)[C@H](CC(C)C)NC(=O)[C@H](Cc3ccccc3)NC(=O)[C@H](C)NC(=O)[C@H](C)NC(=O)[C@H](Cc3cccc(C(=O)O)c3)NC(=O)[C@H](CC(=O)O)NC1=O)NC(=O)[C@H](CC(C)(C)C)NC(=O)[C@H](CC(=O)O)NC2=O (stereo partly drawn) [I-2458, Ac-PL3-Asp-Npg-B5-Asp-3COOHF-Ala-Ala-Phe-Leu-PyrS2-2F3MeF-RbMeBztA-Gln-NH2] | 33 | 5900 |  | 
CC(=O)N1CCC[C@]12CC=CCCCC1(CCCC=CCCCOC(=O)N3CC[C@@](C(=O)N[C@@H](Cc4ccccc4C(F)(F)F)C(=O)N[C@@H](Cc4csc5ccccc45)C(=O)N[C@@H](CCC(N)=O)C(=O)N[C@@H](CC(C)C)C(=O)NC4(C(N)=O)CCCC4)(C3)NC(=O)[C@H](CC(C)C)NC(=O)[C@H](Cc3ccccc3)NC(=O)[C@H](C)NC(=O)[C@H](C)NC(=O)[C@H](Cc3cccc(C(=O)O)c3)NC(=O)[C@H](CC(=O)O)NC1=O)NC(=O)[C@H](CC(C)(C)C)NC(=O)[C@H](CC(=O)O)NC2=O (stereo partly drawn) [I-2387, Ac-PL3-Asp-Npg-B5-Asp-3COOHF-Ala-Ala-Phe-Leu-PyrS2-2F3MeF-BztA-Gln-Leu-CyLeu-NH2] | 120 | 7100 |  | 
